Reference: ChEMBL document CHEMBL1128988, “The antiinfluenza activity of pyrrolo[2,3-d]pyrimidines” (Bioorg Med Chem Lett, 1996)
pIC50: −log10 of the molar value.

Tests used:
Influenza A virus = assay: In vitro antiinfluenza activity against influenza virus A strain; assay type: functional, organism-based
Influenza B virus = assay: In vitro antiinfluenza activity against influenza virus B strain; assay type: functional, organism-based
[1] = Lethal dose against mice upon oral administration; assay type: toxicity; settings: mouse, in vivo
[2] = Lethal dose against mice upon intraperitoneal administration; assay type: toxicity; settings: mouse, in vivo, ip

Compound	pIC50 (Influenza A virus)	pIC50 (Influenza B virus)	LD50 [1] [mg/kg]	LD50 [2] [mg/kg]
Cc1nc(NCCc2cccc(N3CCCC3)c2)c2cc[nH]c2n1	4.62			
Cc1nc(NCc2cccc(N3CCCC3)c2)c2cc[nH]c2n1	5.32	5.19		
Cc1nc(NCCc2cccc(N3CCCCC3)c2)c2cc[nH]c2n1	4.54			
Cc1nc2nccc-2c(NCCc2cccc(N(C)C)c2)[nH]1	4.26			
Cc1nc(NCc2cccc(N3CCCCC3)c2)c2cc[nH]c2n1	5.64	5.29	> 500	> 500
Cc1nc2nccc-2c(NCc2cccc(N(C)C)c2)[nH]1	4.74	> 4.00		
Cc1nc(NCCc2ccccc2)c2cc[nH]c2n1	4.42			
NC12CC3CC(CC(C3)C1)C2 [AMANTADINE]	5.90			
Cc1nc(NCc2ccccc2)c2cc[nH]c2n1 [ROLODINE]	< 4.00			
